Experimental data published in patent USRE48842E1, “Pyrimido-pyrrolo-oxazine-dione compound inhibitors of the cystic fibrosis transmembrane conductance regulator protein and uses therefor” (The Regents of the University of California, priority 2011, dated 2021).

Target: T1, human wildtype CFTR (Homo sapiens, UniProt P13569)
Assay: Fluorescence plate reader assay of CFTR inhibition (iodide influx)
Format: cell-based
Set-up: expressed in transfected cells; host or cells: Fischer rat thyroid (FRT) cells
Settings: not given
Procedure: Cell Culture and Plate Reader Assay of CFTR Inhibition—Fischer rat thyroid (FRT) cells co-expressing human wild type CFTR and the halide indicator YFP-H148Q were cultured in 96-well black-walled microplates (Corning Costar) at a density of 20,000 cells per well in Coon's modified F12 medium containing 10% fetal bovine serum, 2 mM L-glutamine, 100 U/mL penicillin and 100 μg/mL streptomycin. CFTR chloride conductance was assayed at 48 h after plating on a FluoStar fluorescence plate reader (BMG Lab Technologies) as described (see, e.g., Ma et al., J Clin Invest. 2002, supra). Each well was washed 3 times with PBS, leaving 60 μL PBS. Test compounds were added and incubated with the cells for 45 min. Then, 5 μL of a CFTR-activating cocktail (10 μM forskolin, 100 μM IBMX, 20 μM apigenin in PBS) was added. After 15 min, each well was assayed for iodide influx by recording fluorescence continuously (200 ms per point) for 2 s (baseline) and then for 10 s after rapid addition of 160 μL of isosmolar PBS in which 137 mM chloride was replaced by iodide. The initial rate of iodide influx was computed from fluorescence data by non-linear regression.
Initial testing of the compounds for the capability to inhibit CFTR was performed using a plate-reader assay in which iodide influx was measured in FRT cells co-expressing human wild type CFTR and the iodide-sensing yellow fluorescent protein YFP-H148Q/1152L. […] Table B below provides IC50 values for PPQ and BPO compounds.
The relative IC50 values obtained from the plate reader assay are useful for comparisons. Absolute IC50 values obtained from the plate-reader assay are approximate, generally underestimating compound potency because of assay non-linearities, pH-dependent YFP fluorescence, the use of iodide instead of chloride, and compound dilution at the start of the assay (see, e.g., Galietta et al., Am. J. Physiol. Cell Physiol. 281:C1734-42 (2001)).

T1 sequence (P13569 whole entry): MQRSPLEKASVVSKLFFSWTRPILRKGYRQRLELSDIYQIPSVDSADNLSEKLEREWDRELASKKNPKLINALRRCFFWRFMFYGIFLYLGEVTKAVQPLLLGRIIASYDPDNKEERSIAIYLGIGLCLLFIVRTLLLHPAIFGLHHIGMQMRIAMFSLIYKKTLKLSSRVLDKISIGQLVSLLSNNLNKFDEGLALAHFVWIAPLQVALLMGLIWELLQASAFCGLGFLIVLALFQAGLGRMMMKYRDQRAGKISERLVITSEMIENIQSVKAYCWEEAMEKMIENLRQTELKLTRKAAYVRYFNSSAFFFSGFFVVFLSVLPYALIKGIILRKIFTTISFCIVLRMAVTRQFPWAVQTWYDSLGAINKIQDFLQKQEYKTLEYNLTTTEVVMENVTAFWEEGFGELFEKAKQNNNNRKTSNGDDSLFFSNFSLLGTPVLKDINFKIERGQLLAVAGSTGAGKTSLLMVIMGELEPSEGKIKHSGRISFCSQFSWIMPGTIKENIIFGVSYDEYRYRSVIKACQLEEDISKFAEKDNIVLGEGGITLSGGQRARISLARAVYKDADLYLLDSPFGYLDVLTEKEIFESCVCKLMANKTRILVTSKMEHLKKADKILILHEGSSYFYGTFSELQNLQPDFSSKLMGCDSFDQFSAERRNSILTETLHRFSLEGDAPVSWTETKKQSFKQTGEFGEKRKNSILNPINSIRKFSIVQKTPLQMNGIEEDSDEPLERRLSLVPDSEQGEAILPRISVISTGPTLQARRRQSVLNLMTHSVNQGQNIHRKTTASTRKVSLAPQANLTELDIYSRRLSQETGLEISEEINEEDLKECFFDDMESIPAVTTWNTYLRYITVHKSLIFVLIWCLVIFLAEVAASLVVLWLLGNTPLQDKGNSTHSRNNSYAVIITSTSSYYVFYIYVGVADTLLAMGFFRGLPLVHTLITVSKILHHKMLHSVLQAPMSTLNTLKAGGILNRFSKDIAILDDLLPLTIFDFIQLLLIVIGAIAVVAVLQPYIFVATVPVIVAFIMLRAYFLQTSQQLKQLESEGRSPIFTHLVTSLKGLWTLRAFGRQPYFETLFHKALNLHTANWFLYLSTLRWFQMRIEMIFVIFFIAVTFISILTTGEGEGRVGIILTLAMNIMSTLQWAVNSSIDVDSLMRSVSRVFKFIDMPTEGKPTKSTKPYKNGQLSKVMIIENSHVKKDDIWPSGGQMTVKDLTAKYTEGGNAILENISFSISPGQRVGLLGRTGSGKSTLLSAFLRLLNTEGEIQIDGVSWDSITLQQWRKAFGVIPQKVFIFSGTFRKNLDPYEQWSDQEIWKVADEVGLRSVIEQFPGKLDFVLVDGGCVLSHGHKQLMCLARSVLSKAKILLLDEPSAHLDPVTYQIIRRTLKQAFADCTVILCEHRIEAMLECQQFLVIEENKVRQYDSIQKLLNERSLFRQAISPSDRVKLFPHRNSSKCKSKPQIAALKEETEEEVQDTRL

`CCOC(=O)c1ccc2c(c1)-n1c(-c3ccccc3)c3c(=O)n(C)c(=O)n(C)c3c1C(c1ccc(Br)o1)O2` (racemic) [BPO-25, Ethyl 6-(5-Bromofuran-2-yl)-7,9-dimethyl-8,10-dioxo-11-phenyl-7,8,9,10-tetrahydro-6H-benzo[b]pyrimido[4′,5′:3,4]pyrrolo[1,2-d][1,4]oxazine-2-carboxylate] was tested. Which “CFTR inhibition activity (in words)” value did it give?
The value was “excellent CFTR inhibition activity”.

For `Cc1ccc(C2c3c4c(c(-c5ccccc5)n3-c3ccccc3N2C)c(=O)n(C)c(=O)n4C)o1` (centres unmarked) [PPQ-5, 5,7,9-Trimethyl-6-(5-methylfuran-2-yl)-11-phenyl-5,6-dihydropyrimido[4′,5′-3,4]pyrrolo[1,2-a]quinoxaline-8,10-(7H,9H)-dione], which “CFTR inhibition activity (in words)” value is on record?
The value was “weakly active”.

Same assay, conditions: Determined by micro-plate reader assay; FRT cells co-expressing human wild type CFTR and YFP-H148Q

Which IC50 does the source give for `CCOC(=O)c1ccc2c(c1)-n1c(-c3ccccc3)c3c(=O)n(C)c(=O)n(C)c3c1C(c1ccc(Br)o1)O2` (racemic) [BPO-25, Ethyl 6-(5-Bromofuran-2-yl)-7,9-dimethyl-8,10-dioxo-11-phenyl-7,8,9,10-tetrahydro-6H-benzo[b]pyrimido[4′,5′:3,4]pyrrolo[1,2-d][1,4]oxazine-2-carboxylate] here?
The IC50 was 50 nM.

For `Cn1c(=O)c2c(-c3ccccc3)n3c(c2n(C)c1=O)C(c1ccc(I)o1)Oc1ccccc1-3` (centres unmarked) [BPO-17, 7,9-Dimethyl-6-(5-iodofuran-2-yl)-11-phenyl-6Hbenzo[b]pyrimido[4′,5′-3,4]pyrrolo[1,2-d]oxazine-8,10-(7H,9H)-dione], which IC50 is on record?
Its IC50 is 500 nM.

How did the IC50 turn out when `Cc1ccc(C2Oc3ccccc3-n3c(-c4ccccc4)c4c(=O)n(C)c(=O)n(C)c4c32)o1` (centres unmarked) [BPO-18, 7,9-Dimethyl-6-(5-methylfuran-2-yl)-11-phenyl-6H-benzo[b]pyrimido[4′,5′-3,4]pyrrolo[1,2-d]oxazine-8,10-(7H,9H)-dione] was run?
Its IC50 is 150 nM.

`Cc1cccc(-c2c3c(=O)n(C)c(=O)n(C)c3c3n2-c2ccccc2OC3c2ccc(Cl)o2)c1` (centres unmarked) [BPO-19, 6-(5-Chlorofuran-2-yl)-7,9-dimethyl-11-(m-tolyl)-6Hbenzo[b]pyrimido[4′,5′-3,4]pyrrolo[1,2-d]oxazine-8,10-(7H,9H)-dione] was tested. Which IC50 did it give?
The IC50 was 370 nM.

How did the IC50 turn out when `Cc1cccc(-c2c3c(=O)n(C)c(=O)n(C)c3c3n2-c2ccccc2OC3c2ccc(C)o2)c1` (centres unmarked) [BPO-20, 7,9-Dimethyl-6-(5-methylfuran-2-yl)-11-(m-tolyl)-6H-benzo[b]pyrimido[4′,5′-3,4]pyrrolo[1,2-d]oxazine-8,10-(7H,9H)-dione] was run?
Its IC50 is 600 nM.

With `Cc1ccc(C2Oc3ccc([N+](=O)[O-])cc3-n3c(-c4ccccc4)c4c(=O)n(C)c(=O)n(C)c4c32)o1` (centres unmarked) [BPO-22, 7,9-Dimethyl-6-(5-methylfuran-2-yl)-2-nitro-11-phenyl-6H-benzo[b]pyrimido[4′,5′-3,4]pyrrolo[1,2-d]oxazine-8,10-(7H,9H)-dione] as the molecule, how does the IC50 read?
The IC50 was 100 nM.

`Cc1ccc(C2Oc3cc([N+](=O)[O-])c(Cl)cc3-n3c(-c4ccccc4)c4c(=O)n(C)c(=O)n(C)c4c32)o1` (centres unmarked) [BPO-24, 2-Chloro-7,9-Dimethyl-6-(5-methylfuran-2-yl)-3-nitro-11-phenyl-6H-benzo[b]pyrimido[4′,5′-3,4]pyrrolo[1,2-d]oxazine-8,10-(7H,9H)-dione] was tested. Which IC50 did it give?
The IC50 was 170 nM.

For `CCOC(=O)c1ccc2c(c1)-n1c(-c3ccccc3)c3c(=O)n(C)c(=O)n(C)c3c1C(c1ccc(C)o1)O2` (centres unmarked) [BPO-26, Ethyl 7,9-Dimethyl-8,10-dioxo-6-(5-methylfuran-2-yl)-11-phenyl-7,8,9,10-tetrahydro-6H-benzo[b]pyrimido[4′,5′:3,4]pyrrolo[1,2-d][1,4]oxazine-2-carboxylate], which IC50 is on record?
The IC50 was 80 nM.

How did the “IC50 (μm)^A” value turn out when `Cc1ccc(C2c3c4c(c(-c5ccccc5)n3-c3ccccc3N2S(C)(=O)=O)c(=O)n(C)c(=O)n4C)o1` (centres unmarked) [PPQ-1, 7,9-Dimethyl-6-(5-methylfuran-2-yl)-5-(methylsulfonyl)-11-phenyl-5,6-dihydropyrimido[4′,5′-3,4]pyrrolo[1,2-a]quinoxaline-8,10-(7H,9H)-dione] was run?
The value was “inactive”.

How did the “IC50 (μm)^A” value turn out when `Cc1ccc(C2c3c4c(c(-c5ccccc5)n3-c3ccccc3N2C(=O)CCl)c(=O)n(C)c(=O)n4C)o1` (centres unmarked) [PPQ-2, 5-(2-Chloroacetyl)-7,9-dimethyl-6-(5-methylfuran-2-yl)-11-phenyl-5,6-dihydropyrimido[4′,5′-3,4]pyrrolo[1,2-a]quinoxaline-8,10-(7H,9H)-dione] was run?
The value was “inactive”.

How did the “IC50 (μm)^A” value turn out when `CC(=O)N1c2ccccc2-n2c(-c3ccccc3)c3c(=O)n(C)c(=O)n(C)c3c2C1c1ccc(C)o1` (centres unmarked) [PPQ-3, 5-Acetyl-7,9-dimethyl-6-(5-methylfuran-2-yl)-11-phenyl-5,6. -dihydropyrimido[4′,5′-3,4]pyrrolo[1,2-a]quinoxaline-8,10-(7H,9H)-dione] was run?
Its value is “inactive”.

For `Cc1ccc(C2c3c4c(c(-c5ccccc5)n3-c3ccccc3N2N=O)c(=O)n(C)c(=O)n4C)o1` (centres unmarked) [PPQ-4, 7,9-Dimethyl-6-(5-methylfuran-2-yl)-5-nitroso-11-phenyl-5,6. -dihydropyrimido[4′,5′-3,4]pyrrolo[1,2-a]quinoxaline-8,10-(7H,9H)-dione], which IC50 is on record?
The IC50 was 2000 nM.

For `Cc1ccc(C2c3c4c(c(-c5ccccc5)n3-c3ccccc3N2C)c(=O)n(C)c(=O)n4C)o1` (centres unmarked) [PPQ-5, 5,7,9-Trimethyl-6-(5-methylfuran-2-yl)-11-phenyl-5,6-dihydropyrimido[4′,5′-3,4]pyrrolo[1,2-a]quinoxaline-8,10-(7H,9H)-dione], which IC50 is on record?
The IC50 was 1000 nM.

`CCc1ccc(C2Nc3ccccc3-n3c(-c4ccccc4)c4c(=O)n(C)c(=O)n(C)c4c32)o1` (centres unmarked) [PPQ-6, 7,9-Dimethyl-6-(5-ethylfuran-2-yl)-11-phenyl-5,6-dihydropyrimido[4′,5′-3,4]pyrrolo[1,2-a]quinoxaline-8,10-(7H,9H)-dione] was tested. Which IC50 did it give?
The IC50 was 300 nM.

How did the IC50 turn out when `Cc1ccc(C2Nc3ccccc3-n3c(-c4ccccc4)c4c(=O)n(C)c(=O)n(C)c4c32)s1` (centres unmarked) [PPQ-7, 7,9-Dimethyl-6-(5-methylthiophene-2-yl)-11-phenyl-5,6-dihydropyrimido[4′,5′-3,4]pyrrolo[1,2-a]quinoxaline-8,10-(7H,9H)-dione] was run?
Its IC50 is 1700 nM.

`Cc1cc(C2Nc3ccccc3-n3c(-c4ccccc4)c4c(=O)n(C)c(=O)n(C)c4c32)oc1C` (centres unmarked) [PPQ-8, 7,9-Dimethyl-6-(4,5-dimethylfuran-2-yl)-11-phenyl-5,6-dihydropyrimido[4′,5′-3,4]pyrrolo[1,2-a]quinoxaline-8,10-(7H,9H)-dione] was tested. Which IC50 did it give?
The IC50 was 1700 nM.

`Cn1c(=O)c2c(-c3ccccc3)n3c(c2n(C)c1=O)C(c1ccc(Cl)o1)Nc1ccccc1-3` (centres unmarked) [PPQ-9, 6(5-Chlorofuran-2-yl)-7,9-dimethyl-11-phenyl-5,6-dihydropyrimido[4′,5′-3,4]pyrrolo[1,2-a]quinoxaline-8,10-(7H,9H)-dione] was tested. Which IC50 did it give?
The IC50 was 150 nM.

For `Cn1c(=O)c2c(-c3ccccc3)n3c(c2n(C)c1=O)C(c1ccc(C(F)(F)F)o1)Nc1ccccc1-3` (centres unmarked) [PPQ-12, 7,9-Dimethyl-11-phenyl-6-(5-trifluoromethylfuran-2-yl)-5,6-dihydropyrimido[4′,5′-3,4]pyrrolo[1,2-a]quinoxaline-8,10-(7H,9H)-dione], which IC50 is on record?
Its IC50 is 350 nM.

For `Cn1c(=O)c2c(-c3ccccc3)n3c(c2n(C)c1=O)C(c1ccc(-c2ccccc2)o1)Nc1ccccc1-3` (centres unmarked) [PPQ-13, 7,9-Dimethyl-11-phenyl-6-(5-phenylfuran-2-yl)-5,6-dihydropyrimido[4′,5′-3,4]pyrrolo[1,2-a]quinoxaline-8,10-(7H,9H)-dione], which “IC50 (μm)^A” value is on record?
The value was “inactive”.

With `Cn1c(=O)c2c(-c3ccccc3)n3c(c2n(C)c1=O)C(c1ccc(CO)o1)Nc1ccccc1-3` (centres unmarked) [PPQ-14, 7,9-Dimethyl-11-phenyl-6-(5-hydroxymethylfuran-2-yl)-5,6-dihydropyrimido[4′,5′-3,4]pyrrolo[1,2-a]quinoxaline-8,10-(7H,9H)-dione] as the molecule, how does the “IC50 (μm)^A” value read?
The value was “inactive”.

How did the “IC50 (μm)^A” value turn out when `Cn1c(=O)c2c(-c3ccccc3)n3c(c2n(C)c1=O)C(c1cc2ccccc2o1)Nc1ccccc1-3` (centres unmarked) [PPQ-15, 6-(Benzofuran-2-yl)-7,9-dimethyl-11-phenyl-5,6-dihydropyrimido[4′,5′-3,4]pyrrolo[1,2-a]quinoxaline-8,10-(7H,9H)-dione] was run?
The value was “inactive”.

With `Cn1c(=O)c2c(-c3ccccc3)n3c(c2n(C)c1=O)C(c1ccc(Br)o1)Nc1ccc([N+](=O)[O-])cc1-3` (centres unmarked) [PPQ-23, 6-(5-Bromofuran-2-yl)-7,9-dimethyl-2-nitro-11-phenyl-5,6-dihydropyrimido[4′,5′-3,4]pyrrolo[1,2-a]quinoxaline-8,10-(7H,9H)-dione] as the molecule, how does the IC50 read?
The IC50 was 170 nM.

Target: T1, human wildtype CFTR
Assay: Short-circuit current analysis of CFTR inhibition in CFTR-expressing FRT cells
Format: cell-based
Set-up: expressed in transfected cells; host or cells: Fischer rat thyroid (FRT) epithelial cells on Snapwell inserts
Settings: Determined by short-circuit current assay; read-out: IC50 (μM)^B
Procedure: Short-Circuit Current—Snapwell inserts containing CFTR-expressing FRT cells were mounted in an Ussing chamber. The hemichambers contained 5 mL of buffer containing 75 mM NaCl and 75 mM Na gluconate (apical) and 150 mM NaCl (basolateral) (pH 7.3), and the basolateral membrane was permeabilized with 250 μg/mL amphotericin B, as described (see, e.g., Sonawane et al., FASEB J 2006, supra). Short-circuit current was recorded continuously using a DVC-1000 voltage clamp (World Precision Instruments) using Ag/AgCl electrodes and 3 M KCl agar bridges.
Current was measured in CFTR-expressing FRT cells in which the basolateral membrane was permeabilized and in the presence of a transepithelial chloride concentration gradient, so that current is a quantitative linear measure of CFTR function. CFTR was activated by forskolin, followed by serial additions of increasing concentrations of test compounds.
CFTR inhibition potency was measured by short-circuit current analysis in FRT epithelial cells expressing human CFTR in presence of a transepithelial chloride gradient and in which the basolateral membrane was permeabilized with amphotericin B. Under these conditions short-circuit current is proportional to CFTR chloride conductance.

With `CCOC(=O)c1ccc2c(c1)-n1c(-c3ccccc3)c3c(=O)n(C)c(=O)n(C)c3c1C(c1ccc(Br)o1)O2` (racemic) [BPO-25, Ethyl 6-(5-Bromofuran-2-yl)-7,9-dimethyl-8,10-dioxo-11-phenyl-7,8,9,10-tetrahydro-6H-benzo[b]pyrimido[4′,5′:3,4]pyrrolo[1,2-d][1,4]oxazine-2-carboxylate] as the molecule, how does the IC50 read?
Its IC50 is 0.025 µM.

How did the IC50 turn out when `Cc1ccc(C2Oc3ccc([N+](=O)[O-])cc3-n3c(-c4ccccc4)c4c(=O)n(C)c(=O)n(C)c4c32)o1` (centres unmarked) [BPO-22, 7,9-Dimethyl-6-(5-methylfuran-2-yl)-2-nitro-11-phenyl-6H-benzo[b]pyrimido[4′,5′-3,4]pyrrolo[1,2-d]oxazine-8,10-(7H,9H)-dione] was run?
The IC50 was 0.025 µM.
